Measurements reported in article PMC6572064, “Discovery of 2-(1-(3-(4-Chloroxyphenyl)-3-oxo- propyl)pyrrolidine-3-yl)-1H-benzo[d]imidazole-4-carboxamide: A Potent Poly(ADP-ribose) Polymerase (PARP) Inhibitor for Treatment of Cancer” (Molecules, 2019).
Where two headings read alike, the source gives them in different places.

Legend:
[1] = tested on: CAPAN-1 (a BRCA-2-mutated pancreatic cancer cell line); experiment: Cell proliferation assay, three-day, CellTiter-Glo, CAPAN-1; assay type: cell-based; conditions: Homo sapiens; for inhibition at 0.00508 µM: CAPAN-1, 0.00508 uM; for inhibition at 0.0152 µM: CAPAN-1, 0.0152 uM; for inhibition at 0.0457 µM: CAPAN-1, 0.0457 uM; for inhibition at […]: CAPAN-1, 0.14 uM; for inhibition at 0.41 µM: CAPAN-1, 0.41 uM; for inhibition at 1.23 µM: CAPAN-1, 1.23 uM; for inhibition at 3.7 µM: CAPAN-1, 3.70 uM; for inhibition at 11.11 µM: CAPAN-1, 11.11 uM; for inhibition at 33.33 µM: CAPAN-1, 33.33 uM; for inhibition at 100 µM: CAPAN-1, 100.00 uM
Protocol: (§1) A three-day assay was conducted. A cell suspension was prepared. Cell density was counted by an automated cell counter and then diluted to the required density, according to seeding density. 50 μL cells were seeded into 384-well plate in growth medium according to the plate map. The cells were incubated at 37 °C, 5% CO2 overnight.
(§2) 200× compound solution in DMSO was prepared and diluted with growth medium to 26× final concentration by addition of 26 μL 200× compounds to 174 μL growth medium. Then 2 μL of diluted compound solution was added to cells and the cell was incubated at 37 °C, 5% CO2 for 72 h.
(§3) The assay plate was equilibrated to room temperature prior to measurement. 15 μL of CellTiter-Glo Reagent was added into each well and the contents were mixed for 2 min on an orbital shaker to induce cell lysis. The cells were incubated at room temperature for 60 min to stabilize luminescent signal. Luminescence was recorded on the Envision system.

PARP-1 = target: T1, PARP-1 (Homo sapiens, UniProt P09874); experiment: PARP-1 inhibition assay (PARP-1 Chemiluminescent Assay Kit, BPS Bioscience); assay type: biochemical; conditions: 10 nM compound
T1 construct: purchased BPS Bioscience 80569
Protocol: (§4) The PARP-1 and PARP-2 inhibition assays were performed in outsourcing, by a CRO company, Shanghai Medicilon Inc. (Shanghai, China). […] Briefly, PARP-1 or PARP-2 biotinylated substrate was incubated with compounds or solvent control at varying concentrations and an assay buffer containing the PARP-1 or PARP-2 enzyme.

PARP-2 = target: T2, PARP-2 (Homo sapiens, UniProt Q9UGN5); experiment: PARP-2 inhibition assay (PARP-2 Chemiluminescent Assay Kit, BPS Bioscience); assay type: biochemical; conditions: 10 nM compound
T2 construct: purchased BPS Bioscience 80552
Protocol: as §4

[2] = tested on: MDA-MB-436 (a BRCA-1-mutated breast cancer cell line); experiment: Cell proliferation assay, three-day, CellTiter-Glo, MDA-MB-436; assay type: cell-based; conditions: for inhibition at 0.00508 µM / inhibition at 0.0152 µM / inhibition at 0.0457 µM / inhibition at 0.41 µM / inhibition at 1.23 µM / inhibition at 3.7 µM / inhibition at 11.11 µM / inhibition at 33.33 µM / inhibition at 100 µM / IC50: Homo sapiens; for inhibition at 0.00508 µM: MDA-MB-436, MDA-MB-436, Conc. 0.00508 uM; for inhibition at 0.0152 µM: MDA-MB-436, MDA-MB-436, Conc. 0.0152 uM; for inhibition at 0.0457 µM: MDA-MB-436, MDA-MB-436, Conc. 0.0457 uM; for inhibition at 0.41 µM: MDA-MB-436, MDA-MB-436, Conc. 0.41 uM; for inhibition at 1.23 µM: MDA-MB-436, MDA-MB-436, Conc. 1.23 uM; for inhibition at 3.7 µM: MDA-MB-436, MDA-MB-436, Conc. 3.70 uM; for inhibition at 11.11 µM: MDA-MB-436, MDA-MB-436, Conc. 11.11 uM; for inhibition at 33.33 µM: MDA-MB-436, MDA-MB-436, Conc. 33.33 uM; for inhibition at 100 µM: MDA-MB-436, MDA-MB-436, Conc. 100.00 uM
Protocol: as §1, §2, §3

T1 sequence (P09874 whole entry): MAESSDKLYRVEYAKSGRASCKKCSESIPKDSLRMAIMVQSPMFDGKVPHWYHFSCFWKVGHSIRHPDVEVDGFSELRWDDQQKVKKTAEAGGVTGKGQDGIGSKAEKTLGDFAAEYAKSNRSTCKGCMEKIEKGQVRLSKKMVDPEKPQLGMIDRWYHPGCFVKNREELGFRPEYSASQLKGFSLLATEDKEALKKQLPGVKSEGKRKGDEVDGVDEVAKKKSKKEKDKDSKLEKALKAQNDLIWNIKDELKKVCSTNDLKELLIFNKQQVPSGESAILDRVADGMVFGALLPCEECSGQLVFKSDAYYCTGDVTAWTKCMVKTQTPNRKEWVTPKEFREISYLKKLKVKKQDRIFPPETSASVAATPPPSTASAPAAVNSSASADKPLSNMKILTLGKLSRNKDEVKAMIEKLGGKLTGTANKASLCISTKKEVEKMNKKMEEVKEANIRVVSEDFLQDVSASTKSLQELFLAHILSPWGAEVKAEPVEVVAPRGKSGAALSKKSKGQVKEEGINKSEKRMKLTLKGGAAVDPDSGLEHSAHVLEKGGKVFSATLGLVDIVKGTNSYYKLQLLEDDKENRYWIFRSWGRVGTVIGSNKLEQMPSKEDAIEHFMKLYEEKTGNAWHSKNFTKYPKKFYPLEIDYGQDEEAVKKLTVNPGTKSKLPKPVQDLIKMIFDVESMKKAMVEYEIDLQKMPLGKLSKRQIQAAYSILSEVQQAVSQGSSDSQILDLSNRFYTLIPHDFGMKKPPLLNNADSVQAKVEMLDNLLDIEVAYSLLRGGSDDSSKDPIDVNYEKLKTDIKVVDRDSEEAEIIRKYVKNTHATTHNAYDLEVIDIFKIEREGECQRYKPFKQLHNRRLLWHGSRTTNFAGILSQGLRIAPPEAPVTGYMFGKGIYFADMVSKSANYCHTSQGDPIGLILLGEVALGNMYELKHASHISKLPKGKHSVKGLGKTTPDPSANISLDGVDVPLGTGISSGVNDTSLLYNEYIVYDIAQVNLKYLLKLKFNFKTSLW
T2 sequence (Q9UGN5 whole entry): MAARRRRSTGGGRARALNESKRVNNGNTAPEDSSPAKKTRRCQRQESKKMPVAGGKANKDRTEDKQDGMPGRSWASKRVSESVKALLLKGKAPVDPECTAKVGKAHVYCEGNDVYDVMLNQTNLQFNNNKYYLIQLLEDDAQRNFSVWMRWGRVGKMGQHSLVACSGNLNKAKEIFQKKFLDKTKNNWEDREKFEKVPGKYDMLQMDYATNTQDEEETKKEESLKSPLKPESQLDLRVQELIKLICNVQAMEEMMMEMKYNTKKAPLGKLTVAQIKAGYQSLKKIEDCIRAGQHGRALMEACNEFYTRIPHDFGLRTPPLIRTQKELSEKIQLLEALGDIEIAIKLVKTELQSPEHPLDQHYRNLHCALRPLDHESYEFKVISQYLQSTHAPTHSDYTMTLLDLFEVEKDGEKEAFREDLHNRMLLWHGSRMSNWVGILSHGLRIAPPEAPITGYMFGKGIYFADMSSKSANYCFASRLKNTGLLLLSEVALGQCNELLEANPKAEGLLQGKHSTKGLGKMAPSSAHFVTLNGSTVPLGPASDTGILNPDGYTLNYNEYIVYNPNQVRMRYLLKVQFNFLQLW

Q: Which IC50 ([1]; CAPAN-1, 72 h, CellTiter-Glo, read-out: CAPAN-1 IC50) does the source give for NC(=O)c1cccc2[nH]c(C3CCN(CC(O)c4ccccc4)C3)nc12 (stereo not drawn) [Compound 5cf, 2-(1-(2-Hydroxy-2-phenylethyl)pyrrolidin-3-yl)-1H-benzo[d]imidazole-4-carboxamide] here?
A: > 100 µM

Q: What about the inhibition at 0.00508 µM ([1]; replicate 1, read-out: Inh % 1) of the same molecule?
A: -1.7%

Q: What about the inhibition at 0.00508 µM ([1]; replicate 2, read-out: Inh % 2) of the same molecule?
A: -8.4%

Q: And the inhibition at 0.0152 µM ([1]; replicate 1, read-out: Inh % 1)?
A: 3.2%

Q: And the inhibition at 0.0152 µM ([1]; replicate 2, read-out: Inh % 2)?
A: -3.1%

Q: And the inhibition at 0.0457 µM ([1]; replicate 1, read-out: Inh % 1)?
A: -6.9%

Q: And the inhibition at 0.0457 µM ([1]; replicate 2, read-out: Inh % 2)?
A: -3.4%

Q: What about the inhibition at […] ([1]; replicate 1, read-out: Inh % 1) of the same molecule?
A: 10.3%

Q: And the inhibition at […] ([1]; replicate 2, read-out: Inh % 2)?
A: -1.9%

Q: And the inhibition at 0.41 µM ([1]; replicate 1, read-out: Inh % 1)?
A: 9.4%

Q: And the inhibition at 0.41 µM ([1]; replicate 2, read-out: Inh % 2)?
A: 0.649%

Q: And the inhibition at 1.23 µM ([1]; replicate 1, read-out: Inh % 1)?
A: 5.9%

Q: What about the inhibition at 1.23 µM ([1]; replicate 2, read-out: Inh % 2) of the same molecule?
A: 8.1%

Q: What about the inhibition at 3.7 µM ([1]; replicate 1, read-out: Inh % 1) of the same molecule?
A: 13.8%

Q: What about the inhibition at 3.7 µM ([1]; replicate 2, read-out: Inh % 2) of the same molecule?
A: 3.5%

Q: What about the inhibition at 11.11 µM ([1]; replicate 1, read-out: Inh % 1) of the same molecule?
A: 7.2%

Q: What about the inhibition at 11.11 µM ([1]; replicate 2, read-out: Inh % 2) of the same molecule?
A: -0.268%

Q: And the inhibition at 33.33 µM ([1]; replicate 1, read-out: Inh % 1)?
A: 15.8%

Q: What about the inhibition at 33.33 µM ([1]; replicate 2, read-out: Inh % 2) of the same molecule?
A: -1.9%

Q: What about the inhibition at 100 µM ([1]; replicate 1, read-out: Inh % 1) of the same molecule?
A: 29.7%

Q: What about the inhibition at 100 µM ([1]; replicate 2, read-out: Inh % 2) of the same molecule?
A: 21.1%

Q: And the inhibition at 0.01 µM (PARP-1; supplement sheet, read-out: 10 nM inhibition% PAPR-1)?
A: 5.03%

Q: And the inhibition at 0.01 µM (PARP-1; read-out: PARP-1 Inhibition % (10 nM))?
A: 5%

Q: And the inhibition at 0.01 µM (PARP-2; supplement sheet, read-out: 10 nM inhibition% PAPR-2)?
A: 8.96%

Q: What about the inhibition at 0.01 µM (PARP-2; read-out: PARP-2 Inhibition % (10 nM)) of the same molecule?
A: 9%

Q: What about the inhibition at 0.00508 µM ([2]; replicate 1, read-out: Inh % 1) of the same molecule?
A: -0.144%

Q: And the inhibition at 0.00508 µM ([2]; replicate 2, read-out: Inh % 2)?
A: -3.2%

Q: What about the inhibition at 0.0152 µM ([2]; replicate 1, read-out: Inh % 1) of the same molecule?
A: -5.7%

Q: And the inhibition at 0.0152 µM ([2]; replicate 2, read-out: Inh % 2)?
A: -4.4%

Q: What about the inhibition at 0.0457 µM ([2]; replicate 1, read-out: Inh % 1) of the same molecule?
A: -8.5%

Q: And the inhibition at 0.0457 µM ([2]; replicate 2, read-out: Inh % 2)?
A: -9.4%

Q: And the inhibition at 0.41 µM ([2]; replicate 1, read-out: Inh % 1)?
A: -14.6%

Q: What about the inhibition at 0.41 µM ([2]; replicate 2, read-out: Inh % 2) of the same molecule?
A: -10.9%

Q: What about the inhibition at 1.23 µM ([2]; replicate 1, read-out: Inh % 1) of the same molecule?
A: -9.9%

Q: And the inhibition at 1.23 µM ([2]; replicate 2, read-out: Inh % 2)?
A: -7%

Q: And the inhibition at 3.7 µM ([2]; replicate 1, read-out: Inh % 1)?
A: 1.6%

Q: And the inhibition at 3.7 µM ([2]; replicate 2, read-out: Inh % 2)?
A: -6.5%

Q: And the inhibition at 11.11 µM ([2]; replicate 1, read-out: Inh % 1)?
A: -3.4%

Q: What about the inhibition at 11.11 µM ([2]; replicate 2, read-out: Inh % 2) of the same molecule?
A: -9.3%

Q: And the inhibition at 33.33 µM ([2]; replicate 1, read-out: Inh % 1)?
A: 17.3%

Q: And the inhibition at 33.33 µM ([2]; replicate 2, read-out: Inh % 2)?
A: 8.3%

Q: And the inhibition at 100 µM ([2]; replicate 1, read-out: Inh % 1)?
A: 86.9%

Q: And the inhibition at 100 µM ([2]; replicate 2, read-out: Inh % 2)?
A: 70.9%

Q: And the IC50 ([2]; MDA-MB-436, 72 h, CellTiter-Glo, read-out: MDA-MB-436 IC50)?
A: 61 µM

Q: What about the IC50 ([2]; MDA-MB-436, 72 h, supplement Summary sheet, read-out: IC50) of the same molecule?
A: 61 µM

Q: And the IC50 ([2]; MDA-MB-436, curve fit list, no unit in the cell, concentration in uM, read-out: IC50)?
A: 61 µM

Q: And the LogIC50 ([2]; MDA-MB-436, curve fit on Log (uM) concentrations)?
A: 1.786

Q: And the Top ([2]; MDA-MB-436, curve fit parameter (Inh %), '= 100.0' is a constrained value)?
A: 104.3
